# Results: patent US20240415914A1, “Water Dispersible Cannabinoid Compositions” (priority 2021, published 2024)
# Read-outs that look alike come from different tables or passages of the source.
# How the values were obtained:
# [1] = assay type: physicochemical; details: for Stability in Powder Concentrate (content by LCMSMS): stored at room temperature (21-25° C.)
# Procedure: At each time period, 0.05 g of powder was dissolved in 10 ml-15 of ethanol, diluted to fall within the analytical range, and injected into the LCMSMS for analysis.
# [2] = Stability of cannabinoid and Vitamin E components of Beverage 1 (AB White) stored at 8° C. and 21-25° C., LCMSMS over 570 days; assay type: physicochemical; details: for Storage time after which slight degradation / significant losses are seen: AB White; for Stability in AB White, 8° C. (content by LCMSMS): beverage stored at 8° C.
# Procedure: The LCMSMS was calibrated for 0-1000 ng/ml cannabinoids with the same resin material used in the preparation of the concentrates. At each time period, 100 ml of beverage was diluted with 10 ml of methanol and injected into the LCMSMS for analysis.
# [3] = Stability of cannabinoid and Vitamin E components of Beverage 2 (AB Red) stored at 8° C. and 21-25° C., LCMSMS over 570 days; details: AB Red
# Procedure: The LCMSMS was calibrated for 0-50 ng/ml cannabinoids with the same resin material used in the preparation of the concentrates. At each time period, 100 μml of beverage was diluted with 10 ml of methanol and injected into the LCMSMS for analysis.
structure (smiles),measurement,setting,value
"C=C(C)[C@@H]1CCC(C)=C[C@H]1c1c(O)cc(CCCCC)cc1O [CBD, cannabidiol, reference compound]",Chemical stability over the entire period (result in words),"[1]; powder concentrate, room temperature (21-25° C.), 570 days",no significant degradation
same,Stability in Powder Concentrate (content by LCMSMS),[1]; day 0,5.85 mg/g powder
same,Stability in Powder Concentrate (content by LCMSMS),[1]; day 1,5.69 mg/g powder
same,Stability in Powder Concentrate (content by LCMSMS),[1]; day 2,5.76 mg/g powder
same,Stability in Powder Concentrate (content by LCMSMS),[1]; day 3,5.81 mg/g powder
same,Stability in Powder Concentrate (content by LCMSMS),[1]; day 5,5.84 mg/g powder
same,Stability in Powder Concentrate (content by LCMSMS),[1]; day 8,5.91 mg/g powder
same,Stability in Powder Concentrate (content by LCMSMS),[1]; day 9,6.01 mg/g powder
same,Stability in Powder Concentrate (content by LCMSMS),[1]; day 10,5.69 mg/g powder
same,Stability in Powder Concentrate (content by LCMSMS),[1]; day 11,6.00 mg/g powder
same,Stability in Powder Concentrate (content by LCMSMS),[1]; day 12,5.76 mg/g powder
same,Stability in Powder Concentrate (content by LCMSMS),[1]; day 15,5.85 mg/g powder
same,Stability in Powder Concentrate (content by LCMSMS),[1]; day 16,5.97 mg/g powder
same,Stability in Powder Concentrate (content by LCMSMS),[1]; day 17,5.97 mg/g powder
same,Stability in Powder Concentrate (content by LCMSMS),[1]; day 18,6.01 mg/g powder
same,Stability in Powder Concentrate (content by LCMSMS),[1]; day 19,5.74 mg/g powder
same,Stability in Powder Concentrate (content by LCMSMS),[1]; day 22,5.84 mg/g powder
same,Stability in Powder Concentrate (content by LCMSMS),[1]; day 23,6.10 mg/g powder
same,Stability in Powder Concentrate (content by LCMSMS),[1]; day 24,5.89 mg/g powder
same,Stability in Powder Concentrate (content by LCMSMS),[1]; day 25,6.01 mg/g powder
same,Stability in Powder Concentrate (content by LCMSMS),[1]; day 26,6.00 mg/g powder
same,Stability in Powder Concentrate (content by LCMSMS),[1]; day 29,5.97 mg/g powder
same,Stability in Powder Concentrate (content by LCMSMS),[1]; day 30,5.94 mg/g powder
same,Stability in Powder Concentrate (content by LCMSMS),[1]; day 60,5.66 mg/g powder
same,Stability in Powder Concentrate (content by LCMSMS),[1]; day 90,6.00 mg/g powder
same,Stability in Powder Concentrate (content by LCMSMS),[1]; day 120,5.80 mg/g powder
same,Stability in Powder Concentrate (content by LCMSMS),[1]; day 150,5.65 mg/g powder
same,Stability in Powder Concentrate (content by LCMSMS),[1]; day 180,5.93 mg/g powder
same,Stability in Powder Concentrate (content by LCMSMS),[1]; day 210,5.83 mg/g powder
same,Stability in Powder Concentrate (content by LCMSMS),[1]; day 240,5.98 mg/g powder
same,Stability in Powder Concentrate (content by LCMSMS),[1]; day 270,5.72 mg/g powder
same,Stability in Powder Concentrate (content by LCMSMS),[1]; day 300,5.84 mg/g powder
same,Stability in Powder Concentrate (content by LCMSMS),[1]; day 330,6.01 mg/g powder
same,Stability in Powder Concentrate (content by LCMSMS),[1]; day 360,5.97 mg/g powder
same,Stability in Powder Concentrate (content by LCMSMS),[1]; day 390,5.93 mg/g powder
same,Stability in Powder Concentrate (content by LCMSMS),[1]; day 420,5.94 mg/g powder
same,Stability in Powder Concentrate (content by LCMSMS),[1]; day 450,5.65 mg/g powder
same,Stability in Powder Concentrate (content by LCMSMS),[1]; day 480,5.66 mg/g powder
same,Stability in Powder Concentrate (content by LCMSMS),[1]; day 510,6.01 mg/g powder
same,Stability in Powder Concentrate (content by LCMSMS),[1]; day 540,5.81 mg/g powder
same,Stability in Powder Concentrate (content by LCMSMS),[1]; day 570,5.85 mg/g powder
same,Storage time after which slight degradation / significant losses are seen,[2]; stored at 8° C.,> 480 days
same,Storage time after which slight degradation / significant losses are seen,[2]; stored at 21-25° C.,> 390 days
same,"Stability in AB White, 8° C. (content by LCMSMS)",[2]; day 0,28.5 µg/mL
same,"Stability in AB White, 8° C. (content by LCMSMS)",[2]; day 1,27.65 µg/mL
same,"Stability in AB White, 8° C. (content by LCMSMS)",[2]; day 2,27.67 µg/mL
same,"Stability in AB White, 8° C. (content by LCMSMS)",[2]; day 3,27.96 µg/mL
same,"Stability in AB White, 8° C. (content by LCMSMS)",[2]; day 5,28.61 µg/mL
same,"Stability in AB White, 8° C. (content by LCMSMS)",[2]; day 8,28.47 µg/mL
same,"Stability in AB White, 8° C. (content by LCMSMS)",[2]; day 9,28.44 µg/mL
same,"Stability in AB White, 8° C. (content by LCMSMS)",[2]; day 10,27.87 µg/mL
same,"Stability in AB White, 8° C. (content by LCMSMS)",[2]; day 11,28.13 µg/mL
same,"Stability in AB White, 8° C. (content by LCMSMS)",[2]; day 12,28.10 µg/mL
same,"Stability in AB White, 8° C. (content by LCMSMS)",[2]; day 15,27.99 µg/mL
same,"Stability in AB White, 8° C. (content by LCMSMS)",[2]; day 16,28.04 µg/mL
same,"Stability in AB White, 8° C. (content by LCMSMS)",[2]; day 17,27.84 µg/mL
same,"Stability in AB White, 8° C. (content by LCMSMS)",[2]; day 18,27.87 µg/mL
same,"Stability in AB White, 8° C. (content by LCMSMS)",[2]; day 19,28.36 µg/mL
same,"Stability in AB White, 8° C. (content by LCMSMS)",[2]; day 22,28.50 µg/mL
same,"Stability in AB White, 8° C. (content by LCMSMS)",[2]; day 23,27.67 µg/mL
same,"Stability in AB White, 8° C. (content by LCMSMS)",[2]; day 24,28.44 µg/mL
same,"Stability in AB White, 8° C. (content by LCMSMS)",[2]; day 25,27.65 µg/mL
same,"Stability in AB White, 8° C. (content by LCMSMS)",[2]; day 26,27.73 µg/mL
same,"Stability in AB White, 8° C. (content by LCMSMS)",[2]; day 29,28.24 µg/mL
same,"Stability in AB White, 8° C. (content by LCMSMS)",[2]; day 30,27.93 µg/mL
same,"Stability in AB White, 8° C. (content by LCMSMS)",[2]; day 60,27.73 µg/mL
same,"Stability in AB White, 8° C. (content by LCMSMS)",[2]; day 90,27.87 µg/mL
same,"Stability in AB White, 8° C. (content by LCMSMS)",[2]; day 120,27.39 µg/mL
same,"Stability in AB White, 8° C. (content by LCMSMS)",[2]; day 150,28.59 µg/mL
same,"Stability in AB White, 8° C. (content by LCMSMS)",[2]; day 180,27.59 µg/mL
same,"Stability in AB White, 8° C. (content by LCMSMS)",[2]; day 210,27.76 µg/mL
same,"Stability in AB White, 8° C. (content by LCMSMS)",[2]; day 240,27.79 µg/mL
same,"Stability in AB White, 8° C. (content by LCMSMS)",[2]; day 270,28.07 µg/mL
same,"Stability in AB White, 8° C. (content by LCMSMS)",[2]; day 300,27.96 µg/mL
same,"Stability in AB White, 8° C. (content by LCMSMS)",[2]; day 330,27.33 µg/mL
same,"Stability in AB White, 8° C. (content by LCMSMS)",[2]; day 360,27.79 µg/mL
same,"Stability in AB White, 8° C. (content by LCMSMS)",[2]; day 390,27.50 µg/mL
same,"Stability in AB White, 8° C. (content by LCMSMS)",[2]; day 420,27.50 µg/mL
same,"Stability in AB White, 8° C. (content by LCMSMS)",[2]; day 480,27.13 µg/mL
same,"Stability in AB White, 8° C. (content by LCMSMS)",[2]; day 510,26.48 µg/mL
same,"Stability in AB White, 8° C. (content by LCMSMS)",[2]; day 540,26.51 µg/mL
same,"Stability in AB White, 8° C. (content by LCMSMS)",[2]; day 570,26.22 µg/mL
same,Storage time after which slight degradation / significant losses are seen,[3]; stored at 8° C.,> 420 days
same,Storage time after which slight degradation / significant losses are seen,[3]; stored at 21-25° C.,> 390 days
